Test results published in paper PMC4385830, “Group I Paks as therapeutic targets in NF2-deficient meningioma” (Oncotarget, 2015).

Assays:
Experiment in all cases: Kinase selectivity, Z'-LYTE
Type in all cases: biochemical
MAPK9 (JNK2) = biological target: T1, MAPK9 (JNK2) (Homo sapiens, UniProt P45984)
T1 construct: purchased Invitrogen (Life Technologies) SelectScreen Z'-LYTE
Experimental: (§1) Kinase selectivity was assessed using a commercial service that employs a fluorescence-based, coupled-enzyme assay based on the differential sensitivity of phosphorylated and non-phosphorylated peptides to proteolytic cleavage (Invitrogen, Z'-LYTE®). This assay uses recombinant protein kinases and assay mixed optimized for each particular kinase (http://www.lifetechnologies.com/us/en/home/life-science/drug-discovery/target-and-lead-identification-and-validation /kinasebiology/kinase-activity-assays/z-lyte.html).

PTK1 (FAK) = biological target: T2, PTK1 (FAK) (Homo sapiens, UniProt Q05397)
T2 construct: purchased Invitrogen (Life Technologies) SelectScreen Z'-LYTE
Experimental: as §1

SRC = biological target: T3, SRC (Homo sapiens, UniProt P12931)
T3 construct: purchased Invitrogen (Life Technologies) SelectScreen Z'-LYTE
Experimental: as §1

AXL = biological target: T4, AXL (Homo sapiens, UniProt P30530)
T4 construct: purchased Invitrogen (Life Technologies) SelectScreen Z'-LYTE
T4 sequence (P30530 26-894): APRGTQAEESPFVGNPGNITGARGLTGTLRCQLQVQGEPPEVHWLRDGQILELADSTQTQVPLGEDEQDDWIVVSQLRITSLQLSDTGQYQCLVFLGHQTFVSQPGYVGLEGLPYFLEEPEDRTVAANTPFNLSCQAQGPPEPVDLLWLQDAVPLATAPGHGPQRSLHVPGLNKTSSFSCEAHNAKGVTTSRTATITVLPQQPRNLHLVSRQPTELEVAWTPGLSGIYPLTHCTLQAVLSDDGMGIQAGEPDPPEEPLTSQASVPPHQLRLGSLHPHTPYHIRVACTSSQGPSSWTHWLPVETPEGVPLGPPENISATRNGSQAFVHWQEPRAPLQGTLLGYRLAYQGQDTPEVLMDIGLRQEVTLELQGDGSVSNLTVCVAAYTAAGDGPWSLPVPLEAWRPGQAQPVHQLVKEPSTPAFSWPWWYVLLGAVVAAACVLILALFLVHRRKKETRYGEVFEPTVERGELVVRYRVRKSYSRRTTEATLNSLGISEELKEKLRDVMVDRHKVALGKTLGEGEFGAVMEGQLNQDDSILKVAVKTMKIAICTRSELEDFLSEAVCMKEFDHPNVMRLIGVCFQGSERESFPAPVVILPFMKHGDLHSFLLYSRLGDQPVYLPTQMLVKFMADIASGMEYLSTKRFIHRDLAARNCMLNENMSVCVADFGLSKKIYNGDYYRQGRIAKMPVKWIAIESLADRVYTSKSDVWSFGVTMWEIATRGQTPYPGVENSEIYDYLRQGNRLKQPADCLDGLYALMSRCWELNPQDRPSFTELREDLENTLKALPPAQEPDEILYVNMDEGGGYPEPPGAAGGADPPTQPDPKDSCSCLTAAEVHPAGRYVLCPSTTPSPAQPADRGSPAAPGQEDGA
Experimental: as §1

ROCK2 = biological target: T5, ROCK2 (Homo sapiens, UniProt O75116)
T5 construct: purchased Invitrogen (Life Technologies) SelectScreen Z'-LYTE
Experimental: as §1

ROCK1 = biological target: T6, ROCK1 (Homo sapiens, UniProt Q13464)
T6 construct: purchased Invitrogen (Life Technologies) SelectScreen Z'-LYTE
Experimental: as §1

MAPKAPK2 = biological target: T7, MAPKAPK2 (Homo sapiens, UniProt P49137)
T7 construct: purchased Invitrogen (Life Technologies) SelectScreen Z'-LYTE
Experimental: as §1

CDK7/cyclin H/MNAT1 = biological target: T8, CDK7/cyclin H/MNAT1 (Homo sapiens, UniProt P50613)
T8 construct: purchased Invitrogen (Life Technologies) SelectScreen Z'-LYTE
Experimental: as §1

CHEK1 (CHK1) = biological target: T9, CHEK1 (CHK1) (Homo sapiens, UniProt O14757)
T9 construct: purchased Invitrogen (Life Technologies) SelectScreen Z'-LYTE
T9 sequence (O14757 1-476): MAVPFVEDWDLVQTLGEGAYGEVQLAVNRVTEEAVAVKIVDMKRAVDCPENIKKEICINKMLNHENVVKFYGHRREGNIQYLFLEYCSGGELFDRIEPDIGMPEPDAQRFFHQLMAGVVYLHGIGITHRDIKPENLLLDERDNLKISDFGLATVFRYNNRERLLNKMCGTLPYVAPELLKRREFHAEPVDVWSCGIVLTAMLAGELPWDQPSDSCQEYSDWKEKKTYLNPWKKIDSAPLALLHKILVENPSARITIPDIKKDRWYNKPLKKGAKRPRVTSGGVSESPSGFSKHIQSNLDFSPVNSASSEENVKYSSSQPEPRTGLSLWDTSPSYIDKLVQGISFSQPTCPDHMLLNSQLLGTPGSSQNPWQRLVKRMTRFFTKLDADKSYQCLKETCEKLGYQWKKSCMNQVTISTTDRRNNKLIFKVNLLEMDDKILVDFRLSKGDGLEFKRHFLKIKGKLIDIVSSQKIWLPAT
Experimental: as §1

ITK = biological target: T10, ITK (Homo sapiens, UniProt Q08881)
T10 construct: purchased Invitrogen (Life Technologies) SelectScreen Z'-LYTE
T10 sequence (Q08881 1-620): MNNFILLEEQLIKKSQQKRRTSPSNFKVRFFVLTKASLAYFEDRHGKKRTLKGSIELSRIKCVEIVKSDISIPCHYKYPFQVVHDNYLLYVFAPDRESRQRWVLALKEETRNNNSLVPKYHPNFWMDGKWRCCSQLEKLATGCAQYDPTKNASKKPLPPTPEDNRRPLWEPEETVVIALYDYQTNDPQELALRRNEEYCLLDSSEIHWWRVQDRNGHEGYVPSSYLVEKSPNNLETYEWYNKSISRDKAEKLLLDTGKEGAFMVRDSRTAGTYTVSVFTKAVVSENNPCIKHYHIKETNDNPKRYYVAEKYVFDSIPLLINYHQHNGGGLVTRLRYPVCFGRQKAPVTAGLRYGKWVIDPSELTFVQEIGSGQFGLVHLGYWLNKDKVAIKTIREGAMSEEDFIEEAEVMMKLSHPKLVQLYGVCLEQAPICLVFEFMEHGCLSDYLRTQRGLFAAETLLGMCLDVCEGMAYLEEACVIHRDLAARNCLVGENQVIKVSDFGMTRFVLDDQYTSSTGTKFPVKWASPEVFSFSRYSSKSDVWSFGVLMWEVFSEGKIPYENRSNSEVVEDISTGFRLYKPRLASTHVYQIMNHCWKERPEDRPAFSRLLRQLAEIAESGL
Experimental: as §1

MET (cMet) = biological target: T11, MET (cMet) (Homo sapiens, UniProt P08581)
T11 construct: purchased Invitrogen (Life Technologies) SelectScreen Z'-LYTE
Experimental: as §1

T2 sequence (Q05397 whole entry): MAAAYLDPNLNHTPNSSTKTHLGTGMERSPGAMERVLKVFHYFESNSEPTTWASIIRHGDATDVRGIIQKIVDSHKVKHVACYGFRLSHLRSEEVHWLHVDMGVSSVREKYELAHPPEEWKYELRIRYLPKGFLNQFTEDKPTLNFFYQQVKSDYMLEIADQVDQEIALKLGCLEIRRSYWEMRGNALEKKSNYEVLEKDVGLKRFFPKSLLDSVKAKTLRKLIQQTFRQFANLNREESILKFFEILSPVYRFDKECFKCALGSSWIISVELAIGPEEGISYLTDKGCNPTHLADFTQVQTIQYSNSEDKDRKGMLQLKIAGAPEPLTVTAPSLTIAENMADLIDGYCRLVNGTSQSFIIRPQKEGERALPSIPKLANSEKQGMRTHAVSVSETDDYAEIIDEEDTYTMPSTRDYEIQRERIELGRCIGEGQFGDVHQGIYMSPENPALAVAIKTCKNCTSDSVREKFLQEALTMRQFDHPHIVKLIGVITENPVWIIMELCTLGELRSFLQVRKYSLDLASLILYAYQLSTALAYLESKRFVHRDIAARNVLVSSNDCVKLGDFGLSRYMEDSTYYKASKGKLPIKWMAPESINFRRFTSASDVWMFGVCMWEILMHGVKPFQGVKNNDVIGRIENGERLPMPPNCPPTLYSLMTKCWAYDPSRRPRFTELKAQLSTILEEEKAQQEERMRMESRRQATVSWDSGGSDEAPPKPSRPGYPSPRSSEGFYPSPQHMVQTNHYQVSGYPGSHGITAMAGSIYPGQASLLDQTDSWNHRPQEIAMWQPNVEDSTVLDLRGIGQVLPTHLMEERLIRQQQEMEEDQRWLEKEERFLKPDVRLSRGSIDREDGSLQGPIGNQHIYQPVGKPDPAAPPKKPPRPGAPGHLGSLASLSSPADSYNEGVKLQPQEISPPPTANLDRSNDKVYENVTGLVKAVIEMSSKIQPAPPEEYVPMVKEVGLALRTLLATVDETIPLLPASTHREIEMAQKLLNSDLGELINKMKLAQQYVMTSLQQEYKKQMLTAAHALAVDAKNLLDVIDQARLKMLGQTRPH
T7 sequence (P49137 whole entry): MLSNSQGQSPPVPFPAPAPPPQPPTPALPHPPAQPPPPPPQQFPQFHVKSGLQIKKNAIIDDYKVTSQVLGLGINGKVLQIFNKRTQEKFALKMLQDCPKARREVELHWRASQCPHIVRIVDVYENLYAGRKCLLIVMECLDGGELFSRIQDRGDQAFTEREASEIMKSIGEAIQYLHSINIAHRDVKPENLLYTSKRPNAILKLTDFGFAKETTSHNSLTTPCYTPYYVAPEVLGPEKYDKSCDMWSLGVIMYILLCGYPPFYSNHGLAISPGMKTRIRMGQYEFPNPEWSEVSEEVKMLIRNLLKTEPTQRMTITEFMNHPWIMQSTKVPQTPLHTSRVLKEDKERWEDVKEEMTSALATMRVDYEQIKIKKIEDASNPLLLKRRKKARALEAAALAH
T3 sequence (P12931 whole entry): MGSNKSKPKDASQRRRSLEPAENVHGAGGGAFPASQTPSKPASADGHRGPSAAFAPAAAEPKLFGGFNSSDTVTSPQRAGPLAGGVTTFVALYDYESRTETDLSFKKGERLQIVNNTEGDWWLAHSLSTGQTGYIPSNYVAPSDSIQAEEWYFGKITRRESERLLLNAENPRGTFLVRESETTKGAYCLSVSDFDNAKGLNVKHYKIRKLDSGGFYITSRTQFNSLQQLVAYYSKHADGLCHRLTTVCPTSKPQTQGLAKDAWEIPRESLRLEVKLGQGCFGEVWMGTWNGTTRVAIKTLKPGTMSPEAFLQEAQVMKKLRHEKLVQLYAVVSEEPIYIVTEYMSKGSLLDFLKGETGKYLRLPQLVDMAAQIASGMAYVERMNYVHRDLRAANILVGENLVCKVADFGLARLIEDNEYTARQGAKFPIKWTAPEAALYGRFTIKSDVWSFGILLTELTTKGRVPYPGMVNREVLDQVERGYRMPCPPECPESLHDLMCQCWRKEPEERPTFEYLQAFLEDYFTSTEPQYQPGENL
T11 sequence (P08581 25-1390): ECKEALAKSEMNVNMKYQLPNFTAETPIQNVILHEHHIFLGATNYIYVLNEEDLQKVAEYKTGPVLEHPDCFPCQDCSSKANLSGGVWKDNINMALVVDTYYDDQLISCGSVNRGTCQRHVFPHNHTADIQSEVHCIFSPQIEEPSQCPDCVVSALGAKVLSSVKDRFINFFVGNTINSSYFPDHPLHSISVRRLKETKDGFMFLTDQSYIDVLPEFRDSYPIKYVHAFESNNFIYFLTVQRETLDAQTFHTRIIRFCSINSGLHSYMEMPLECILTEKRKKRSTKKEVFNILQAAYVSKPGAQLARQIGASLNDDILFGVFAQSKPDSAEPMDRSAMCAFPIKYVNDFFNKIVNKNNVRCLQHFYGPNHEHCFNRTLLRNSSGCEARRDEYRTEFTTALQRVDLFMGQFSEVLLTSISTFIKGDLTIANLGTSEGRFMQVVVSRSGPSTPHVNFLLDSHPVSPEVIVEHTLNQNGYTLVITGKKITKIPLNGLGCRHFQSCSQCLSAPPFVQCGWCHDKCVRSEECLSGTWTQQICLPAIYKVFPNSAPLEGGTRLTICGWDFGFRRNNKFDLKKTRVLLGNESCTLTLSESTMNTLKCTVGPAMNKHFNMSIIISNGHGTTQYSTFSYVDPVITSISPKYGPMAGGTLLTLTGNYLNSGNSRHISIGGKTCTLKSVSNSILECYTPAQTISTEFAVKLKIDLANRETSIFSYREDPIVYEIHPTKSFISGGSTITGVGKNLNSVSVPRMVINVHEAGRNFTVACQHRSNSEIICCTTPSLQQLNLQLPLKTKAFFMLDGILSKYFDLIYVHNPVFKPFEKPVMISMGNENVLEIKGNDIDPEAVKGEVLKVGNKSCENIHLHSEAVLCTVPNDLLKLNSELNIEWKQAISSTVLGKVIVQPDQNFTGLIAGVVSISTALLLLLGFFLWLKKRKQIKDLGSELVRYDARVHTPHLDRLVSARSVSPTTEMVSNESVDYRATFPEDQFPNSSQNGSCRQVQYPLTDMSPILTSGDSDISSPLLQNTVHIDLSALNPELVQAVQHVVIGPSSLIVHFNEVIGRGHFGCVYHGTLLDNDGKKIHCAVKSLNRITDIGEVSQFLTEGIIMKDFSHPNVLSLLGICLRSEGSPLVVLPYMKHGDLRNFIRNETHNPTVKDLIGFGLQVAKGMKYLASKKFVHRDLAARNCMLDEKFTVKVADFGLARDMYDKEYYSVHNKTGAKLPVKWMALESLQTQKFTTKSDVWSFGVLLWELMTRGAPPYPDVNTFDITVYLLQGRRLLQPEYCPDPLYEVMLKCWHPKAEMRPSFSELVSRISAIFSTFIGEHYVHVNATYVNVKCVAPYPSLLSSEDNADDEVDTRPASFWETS
T5 sequence (O75116 whole entry): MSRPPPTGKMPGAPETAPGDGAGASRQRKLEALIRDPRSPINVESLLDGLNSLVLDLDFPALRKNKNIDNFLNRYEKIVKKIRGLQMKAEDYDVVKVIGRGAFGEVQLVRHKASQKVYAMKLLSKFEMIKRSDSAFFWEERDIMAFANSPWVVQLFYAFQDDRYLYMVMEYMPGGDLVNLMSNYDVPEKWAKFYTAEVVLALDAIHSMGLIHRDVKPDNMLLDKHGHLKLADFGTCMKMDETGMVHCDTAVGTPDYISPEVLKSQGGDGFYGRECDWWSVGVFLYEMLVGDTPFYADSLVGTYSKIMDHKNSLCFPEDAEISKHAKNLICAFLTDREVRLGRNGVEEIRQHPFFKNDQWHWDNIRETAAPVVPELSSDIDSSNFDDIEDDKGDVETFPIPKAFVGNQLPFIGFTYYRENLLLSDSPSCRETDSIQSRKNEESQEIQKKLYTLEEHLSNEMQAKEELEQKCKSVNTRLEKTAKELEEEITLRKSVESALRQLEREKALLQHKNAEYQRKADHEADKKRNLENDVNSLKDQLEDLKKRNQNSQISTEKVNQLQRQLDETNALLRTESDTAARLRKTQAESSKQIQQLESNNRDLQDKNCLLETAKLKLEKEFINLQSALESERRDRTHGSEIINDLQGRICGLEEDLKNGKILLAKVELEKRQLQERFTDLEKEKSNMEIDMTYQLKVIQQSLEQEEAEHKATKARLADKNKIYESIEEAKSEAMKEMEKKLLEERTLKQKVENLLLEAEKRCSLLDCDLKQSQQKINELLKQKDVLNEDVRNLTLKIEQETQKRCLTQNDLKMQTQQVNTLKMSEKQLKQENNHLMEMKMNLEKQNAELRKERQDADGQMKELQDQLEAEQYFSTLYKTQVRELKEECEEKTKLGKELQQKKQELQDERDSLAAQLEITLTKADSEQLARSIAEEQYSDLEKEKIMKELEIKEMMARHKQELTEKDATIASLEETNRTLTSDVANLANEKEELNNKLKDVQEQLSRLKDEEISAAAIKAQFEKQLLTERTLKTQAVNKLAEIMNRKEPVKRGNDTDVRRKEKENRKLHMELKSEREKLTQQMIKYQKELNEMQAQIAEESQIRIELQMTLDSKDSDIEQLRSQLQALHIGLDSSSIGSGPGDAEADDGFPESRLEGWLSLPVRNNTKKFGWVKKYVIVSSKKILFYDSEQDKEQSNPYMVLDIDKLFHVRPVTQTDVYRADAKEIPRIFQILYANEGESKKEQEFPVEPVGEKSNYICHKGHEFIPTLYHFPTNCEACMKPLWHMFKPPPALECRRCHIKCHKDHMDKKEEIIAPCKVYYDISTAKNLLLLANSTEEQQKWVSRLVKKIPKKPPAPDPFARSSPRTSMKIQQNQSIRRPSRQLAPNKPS

| Compound | % inhibition of activity (MAPK9 (JNK2)) [%] | % inhibition of activity (PTK1 (FAK)) [%] | % inhibition of activity (SRC) [%] | % inhibition of activity (AXL) [%] | % inhibition of activity (ROCK2) [%] | % inhibition of activity (ROCK1) [%] | % inhibition of activity (MAPKAPK2) [%] | % inhibition of activity (CDK7/cyclin H/MNAT1) [%] | % inhibition of activity (CHEK1 (CHK1)) [%] | % inhibition of activity (ITK) [%] | % inhibition of activity (MET (cMet)) [%] |
| --- | --- | --- | --- | --- | --- | --- | --- | --- | --- | --- | --- |
| CCn1c(=O)c(-c2ccc(-c3noc(C)n3)cc2Cl)cc2cnc(Nc3ccc(C4CCN(C)CC4)cc3)nc21 [Frax716] | 20 | 22 | 97 | 45 | 4 | 2 | 7 | 2 | −2 | 84 | 38 |
| CCn1c(=O)c(-c2ccc(-c3cncc(C)n3)cc2Cl)cc2cnc(NCCC3CCN(C)CC3)nc21 [Frax1036] | 44 | 9 | 16 | 21 | 7 | −2 | 0 | −3 | −14 | 0 | 36 |
| Cc1nc(Nc2[nH]nc3c2CN(C(=O)N[C@H](CN(C)C)c2ccccc2)C3(C)C)c2sccc2n1 [PF3758309, reference compound] | 0 | 38 | 74 | 67 | 10 | 5 | 1 | 96 | 91 | 23 | 19 |
